Results on nine compounds are retold here after patent publication US20250163057A1, “DCN-1 MODULATING COMPOUNDS AND METHODS OF USE THEREOF” (Cellarity, Inc., priority 2023, published 2025).

Read-outs that look alike come from different tables or passages of the source. Some results are limits rather than exact numbers.

As a reminder, the IC50 is the concentration that inhibits the measured activity by half.

For assay [1], the system named is Cullin-3 (CUL3) neddylation. Description: AlphaLISA assay for Cullin-3 (CUL3) neddylation in TF 1 cells. The assay is classed as cell-based. The note with it: Homo sapiens, 3 hours treatment. The method in brief:
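TF 1 cells in unsupplemented IMDM treated with compound concentrations for 3 h, then lysed. CUL3 neddylation detected by AlphaLISA (biotinylated anti-NEDD8, anti-CUL3 acceptor beads overnight, streptavidin donor beads 1 h); normalized to vehicle (0%) and 1 μM DI-1548 (100%), IC50 from Hill fits.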
(In general: Bead proximity is the source of the signal in Alpha formats.)

Assay [2] deals with DCN1 (DCUND1) protein PONY domain (Homo sapiens (Human), UniProt Q96GG9). Put plainly: TR-FRET assay, DCN1 binding with FAM-labeled probe. Summed up:
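Binding was read as the TR-FRET ratio between a FAM-tagged inhibitor probe and Tb-labeled biotinylated E. coli-expressed DCN1 PONY domain, measured 1, 5 and 24 h after compound addition. The two setups used 5 nM protein/20 nM FAM-probe or 0.31 nM protein/900 nM total probe (100 nM labeled), in TritonX buffer with 200 mM NaCl.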
A general note: In TR-FRET formats the signal depends on donor and acceptor labels being close together.

The target in the next assay is DCN1 protein (Homo sapiens (Human), UniProt Q96GG9). Put plainly: Intact Protein MS Analysis with the RapidFire-TOF System (covalent adduct formation). It is filed as binding. The note with it: MS Emax; 400 nM DCN1, 3 hours at room temperature. Summed up: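 Tag-cleaved human DCN1 (400 nM) expressed in E. coli, in 25 mM Tris-HCl, 200 mM NaCl, 1 mM DTT, was incubated with 11 compound concentrations for 3 h at room temperature and quenched with 0.2% formic acid. Intact-protein Q-TOF MS with deconvolution detected the compound adduct mass.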

Setting [3] is: 24 hr after treatment with compound, read-out: TR FRET IC50 24 hr.
Setting [4] is: TR FRET IC50 1 hr (nM), 1 hr after treatment with compound.
[5] abbreviates: read-out: TR FRET IC50 1 hr, 1 hr after treatment with compound.

Chain of DCN1 protein (Q96GG9 whole entry): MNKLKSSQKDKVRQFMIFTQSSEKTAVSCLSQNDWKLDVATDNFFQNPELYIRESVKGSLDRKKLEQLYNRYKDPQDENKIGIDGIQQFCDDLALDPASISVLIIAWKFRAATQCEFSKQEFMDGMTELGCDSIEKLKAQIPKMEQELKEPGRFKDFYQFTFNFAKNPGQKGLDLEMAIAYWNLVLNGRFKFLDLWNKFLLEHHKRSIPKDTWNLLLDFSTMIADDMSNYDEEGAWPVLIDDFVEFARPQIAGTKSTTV
Chain of DCN1 (DCUND1) protein PONY domain (Q96GG9 60-248): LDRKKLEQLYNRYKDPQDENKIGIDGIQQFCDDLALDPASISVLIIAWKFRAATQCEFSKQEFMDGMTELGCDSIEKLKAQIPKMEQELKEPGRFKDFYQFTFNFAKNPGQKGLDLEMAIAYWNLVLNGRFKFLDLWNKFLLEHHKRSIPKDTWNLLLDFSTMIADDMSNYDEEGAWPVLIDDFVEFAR

As for `CCN1C(=O)[C@@H](NC(=O)c2cccc(C(F)(F)F)c2)[C@@H](c2ccc(F)cc2)c2c(C(=O)N3CCOC[C@@H]3C#N)nn(-c3ccccc3)c21` (mixture of isomers) [Compound I-297], the IC50 is not above 0.1 µM in assay [1] (TF-1, 3 h); not above 200 nM in assay [2] (setting [3]); 1000 to 3000 nM in assay [2] (setting [4]). On DCN1 protein, the “% Adduct Formation” value was “+++ (MS Emax % adduct formation greater than 80.0 and less than or equal to 100.0)”.
For the compound `CCN1C(=O)[C@H](NC(=O)c2cccc(C(F)(F)F)c2)[C@H](c2ccc(F)cc2)c2c(C(=O)N3CCC[C@H]3C#N)nn(-c3cccc(OCCCN4CC5(COC5)C4)c3)c21` (stereo in doubt) [Compound I-293], the IC50 was not above 0.1 µM in assay [1] (TF-1, 3 h); not above 200 nM in assay [2] (setting [3]); not above 200 nM in assay [2] (setting [4]). Moreover, the “% Adduct Formation” value at DCN1 protein was “+++ (MS Emax % adduct formation greater than 80.0 and less than or equal to 100.0)”.
`CCN1C(=O)[C@@H](NC(=O)c2cccc(C(F)(F)F)c2)[C@@H](c2ccc(F)cc2)c2c(C(=O)N(C)[C@H](C#N)CCO)nn(-c3ccccc3)c21` (relative stereo) [Compound I-301, (4S,5S)—N-[(1S*)-1-cyano-3-hydroxypropyl]-7-ethyl-4-(4-fluorophenyl)-N-methyl-6-oxo-1-phenyl-5-[3-(trifluoromethyl)benzamido]-4H,5H-pyrazolo[3,4-b]pyridine-3-carboxamide]: the IC50 in assay [1] (TF-1, 3 h) was not above 0.1 µM; in assay [2] (setting [3]), not above 200 nM; in assay [2] (setting [4]) it was not above 200 nM. Also, the “% Adduct Formation” value on DCN1 protein was “++ (MS Emax % adduct formation greater than 30.0 and less than or equal to 80.0)”.
Take `CCN1C(=O)[C@@H](NC(=O)c2cccc(C(F)(F)F)c2)[C@@H](c2ccc(F)cc2)c2c(NC(=O)CC#N)nn(-c3ccccc3)c21` (racemic) [Compound I-80]: the IC50 in assay [1] (TF-1, 3 h) was not above 0.1 µM; in assay [2] (setting [3]) it was 1000 to 3000 nM; in assay [2] (setting [4]) it was 1000 to 3000 nM. Also, at DCN1 protein, the “% Adduct Formation” value was “+ (MS Emax % adduct formation greater than or equal to 0.0 and less than or equal to 30.0)”.
Take `CCN1C(=O)[C@@H](NC(=O)c2cccc(C(F)(F)F)c2)[C@@H](c2ccc(F)cc2)c2c([C@@H](CN(C)C)NC#N)nn(-c3ccccc3)c21` (mixture of isomers) [Compound I-272]: the IC50 in assay [1] (TF-1, 3 h) is not above 0.1 µM; in assay [2] (setting [3]), not above 200 nM; in assay [2] (setting [5]), not above 200 nM. Moreover, the “% Adduct Formation” value at DCN1 protein is “+++ (MS Emax % adduct formation greater than 80.0 and less than or equal to 100.0)”.
Consider `CCN1C(=O)[C@@H](NC(=O)c2cccc(OC)c2)[C@@H](C2CC2)c2c(C(=O)N3[C@H](C#N)C[C@H]4C[C@H]43)nn(C3CCOCC3)c21` [Compound I-395], for which the results for the IC50 in assay [1], in assay [2] (setting [3]) and in assay [2] (setting [5]) were not above 0.1 µM, not above 200 nM and not above 200 nM, respectively. In addition, the “% Adduct Formation” value on DCN1 protein was “+++ (MS Emax % adduct formation greater than 80.0 and less than or equal to 100.0)”.
As to `C=C(CN1C[C@@H]2C[C@H]1CO2)C(=O)NCc1nn(-c2ccccc2)c2c1[C@H](c1ccc(F)cc1)[C@H](NC(=O)c1cccc(C(F)(F)F)c1)C(=O)N2CC` (mixture of isomers) [Compound I-12], the IC50 in assay [1] (TF-1, 3 h) is not above 0.1 µM; in assay [2] (setting [3]), not above 200 nM; in assay [2] (setting [5]) it was not above 200 nM. For the same compound, on DCN1 protein, the “% Adduct Formation” value is “+++ (MS Emax % adduct formation greater than 80.0 and less than or equal to 100.0)”.
With `CCN1C(=O)[C@@H](NC(=O)c2cccc(C(F)(F)F)c2)[C@@H](C2CC2)c2c(C(=O)N3[C@H](C#N)C[C@H]4C[C@H]43)nn(C3CC3)c21` [Compound I-327], the IC50 in assay [1] (TF-1, 3 h) is not above 0.1 µM; in assay [2] (setting [3]) it was not above 200 nM; in assay [2] (setting [5]), not above 200 nM. Also, on DCN1 protein, the “% Adduct Formation” value was “+++ (MS Emax % adduct formation greater than 80.0 and less than or equal to 100.0)”.
`CCN1C(=O)[C@@H](NC(=O)c2cccc(C(F)(F)F)c2)[C@@H](c2ccc(F)cc2)c2c(C(=O)N(C)[C@@H](C#N)CCN3CCOCC3)nn(-c3ccccc3)c21` [Compound I-309]: the IC50 in assay [1] (TF-1, 3 h) is not above 0.1 µM; in assay [2] (setting [3]), not above 200 nM; in assay [2] (setting [5]) it was not above 200 nM. The “% Adduct Formation” value at DCN1 protein was “+ (MS Emax % adduct formation greater than or equal to 0.0 and less than or equal to 30.0)”.
